Source: ChEMBL document CHEMBL5291721, “A preclinical secondary pharmacology resource illuminates target-adverse drug reaction associations of marketed drugs” (Nat Commun, 2023)

Assays:
[1] = target: 5-hydroxytryptamine receptor 2B (Homo sapiens, UniProt P41595)
Bile acid receptor [2] = target: T1, Bile acid receptor (Homo sapiens, UniProt Q96RI1); assay type: functional
T1 sequence (Q96RI1 whole entry): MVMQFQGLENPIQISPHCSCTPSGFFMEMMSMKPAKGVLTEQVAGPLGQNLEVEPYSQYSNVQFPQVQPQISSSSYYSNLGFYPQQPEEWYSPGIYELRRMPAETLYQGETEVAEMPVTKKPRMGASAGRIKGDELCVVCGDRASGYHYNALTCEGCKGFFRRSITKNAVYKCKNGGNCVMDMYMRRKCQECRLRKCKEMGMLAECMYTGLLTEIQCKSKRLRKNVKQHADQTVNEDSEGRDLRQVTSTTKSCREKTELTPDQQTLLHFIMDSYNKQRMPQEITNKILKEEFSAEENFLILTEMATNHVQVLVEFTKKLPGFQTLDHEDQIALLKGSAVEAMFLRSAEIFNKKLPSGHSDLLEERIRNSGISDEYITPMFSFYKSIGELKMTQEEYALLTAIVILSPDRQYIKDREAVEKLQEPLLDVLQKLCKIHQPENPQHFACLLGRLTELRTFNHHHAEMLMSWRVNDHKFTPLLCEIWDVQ

Bile acid receptor [3] = target: T1, Bile acid receptor; assay type: functional; remark: listed apart in the source
Bile acid receptor [4] = target: T1, Bile acid receptor; assay type: functional; remark: listed apart in the source
Bile acid receptor [5] = target: T1, Bile acid receptor; assay type: functional; remark: listed apart in the source
[6] = target: T2, Muscarinic acetylcholine receptor M2 (Homo sapiens, UniProt P08172)
T2 sequence (P08172 whole entry): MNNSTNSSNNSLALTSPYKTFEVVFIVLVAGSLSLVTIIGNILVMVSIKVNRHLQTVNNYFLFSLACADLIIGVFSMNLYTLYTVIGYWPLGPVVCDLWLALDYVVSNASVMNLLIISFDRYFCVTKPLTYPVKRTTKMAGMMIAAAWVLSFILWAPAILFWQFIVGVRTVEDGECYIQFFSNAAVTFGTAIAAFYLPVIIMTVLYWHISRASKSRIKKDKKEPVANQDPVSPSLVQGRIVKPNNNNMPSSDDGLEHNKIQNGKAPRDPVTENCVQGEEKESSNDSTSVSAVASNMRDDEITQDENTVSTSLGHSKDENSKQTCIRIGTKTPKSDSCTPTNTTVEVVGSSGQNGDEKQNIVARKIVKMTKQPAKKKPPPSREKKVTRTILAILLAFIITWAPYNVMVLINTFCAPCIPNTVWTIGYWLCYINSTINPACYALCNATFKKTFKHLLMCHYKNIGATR
Further: assay procedure not described here.

Sequence of 5-hydroxytryptamine receptor 2B (P41595 whole entry): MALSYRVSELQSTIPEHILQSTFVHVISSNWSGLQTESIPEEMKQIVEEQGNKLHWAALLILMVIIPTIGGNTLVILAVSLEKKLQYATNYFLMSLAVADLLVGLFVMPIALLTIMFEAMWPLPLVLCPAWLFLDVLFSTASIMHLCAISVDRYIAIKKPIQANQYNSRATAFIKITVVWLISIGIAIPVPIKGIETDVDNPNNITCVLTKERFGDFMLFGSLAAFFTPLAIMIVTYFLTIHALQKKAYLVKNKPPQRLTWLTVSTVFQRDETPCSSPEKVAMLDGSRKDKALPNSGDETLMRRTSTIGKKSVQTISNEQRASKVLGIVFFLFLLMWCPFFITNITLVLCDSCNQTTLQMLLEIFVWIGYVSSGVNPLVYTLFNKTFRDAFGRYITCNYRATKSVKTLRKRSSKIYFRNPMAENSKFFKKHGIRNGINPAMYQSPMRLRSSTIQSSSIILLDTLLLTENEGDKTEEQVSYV

Compound C=C[C@H]1C[N@@]2CC[C@H]1C[C@@H]2[C@@H](O)c1ccnc2ccc(OC)cc12 [QUINIDINE] has an AC50 [1] of 0.976 µM.

With CC(C(=O)O)c1ccc2c(c1)[nH]c1ccc(Cl)cc12 (stereo unspecified) [CARPROFEN] the AC50 (Bile acid receptor [2]) was greater than 30 µM, the AC50 (Bile acid receptor [3]) was greater than 10 µM and the AC50 (Bile acid receptor [4]) was greater than 30 µM. The AC50 (Bile acid receptor [5]) was greater than 30 µM.

COc1cc2nccc(Oc3ccc(NC(=O)C4(C(=O)Nc5ccc(F)cc5)CC4)cc3)c2cc1OC [CABOZANTINIB] showed an AC50 [6] greater than 30 µM.
